# Earlier results in publication PMC8650797 (The ocular surface, 2020).
# Tested on: herpes simplex virus DNA polymerase
# Conditions: native peptide; ref [29] Digard et al.
sequence,measurement,value
EETRRMLHRAFDTLA,activity in blocking DNA synthesis in vitro,very poor activity
